These results are taken from US20230123334A1, “AMINO LIPID COMPOUND, PREPARATION METHOD THEREFOR, AND APPLICATION THEREOF” (SHENZHEN SHENXIN BIOTECHNOLOGY CO., LTD., priority 2020, published 2023).

Molecules are shown by their SMILES.

For assay [1], the system named is HEK293 cells. The experiment in a line: Preliminary screening as DNA vectors, GFP transfection of HEK293 cells. As to conditions: HEK293 cells; lipid/DOPE liposome with 75 ng plasmid DNA (psin-EGFP-IRES-Puro); number of cells expressing GFP divided by total number of nuclei (Hoechst). In kind it is cell-based. In a few lines:
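Lipid + DOPE liposomes (NaOAc, pH 5.6) complexed w/ 75 ng psin-EGFP-IRES-Puro, 30 min RT; added to 3-5×10^4 HEK293/well, 37° C. Hoechst 0.2 μg/mL at 20-24 h, imaged after further 20-24 h. Efficiency = GFP+ cells / total nuclei.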

Assay [2] deals with HEK293 cells. The experiment in a line: Preliminary screening as mRNA vectors, EGFP mRNA transfection of HEK293 cells. In kind it is cell-based. As to conditions: HEK293 cells, 96-well plates, EGFP mRNA 50 ng per well; percentage of GFP fluorescent cells relative to total number of cells (Hoechst). The method in brief: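 Each well of HEK293 cells received 50 ng of EGFP mRNA. Efficiency was expressed as percent GFP-expressing cells over Hoechst-defined total cell number.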

Regarding `CCCCCCCCCCCCCNc1nc(NCCCCCCCC)nc(NCCCN(C)C)n1` [Compound N8N13D6], the “Absolute DNA transfection efficiency in HEK293 cells” value (from here on “Absolute DNA transfection efficiency”) in assay [1] worked out at 0.0%. Also, in assay [2], the “Absolute mRNA transfection efficiency in HEK293 cells” value (from here on “Absolute mRNA transfection efficiency”) is reported as 0.0%.

As to `CCCCCCCCCCCCCNc1nc(NCCCCCCCC)nc(NCCN(CC)CC)n1` [Compound N8N13D7], the “Absolute DNA transfection efficiency” value in assay [1] is listed as 0.0%. For the same compound, in assay [2], the “Absolute mRNA transfection efficiency” value is 0.0%.

For `CCCCCCCCCCCCCNc1nc(NCCCCCCCC)nc(NCCCN2CCOCC2)n1` [Compound N8N13D8], the “Absolute DNA transfection efficiency” value in assay [1] was 0.0%. For the same compound, the “Absolute mRNA transfection efficiency” value in assay [2] turned out to be 0.2%.

As for `CCCCCCCCCCCCCNc1nc(NCCCCCCCC)nc(NCCCN2CCN(C)CC2)n1` [Compound N8N13D9], the “Absolute DNA transfection efficiency” value in assay [1] is recorded as 1.0%. Besides, in assay [2], the “Absolute mRNA transfection efficiency” value was 0.0%.

Take `CCCCCCCCCCCCCNc1nc(NCCCCCCCC)nc(NCC2CCN(C)CC2)n1` [Compound N8N13D10]: the “Absolute DNA transfection efficiency” value in assay [1] is given as 2.1%. Moreover, the “Absolute mRNA transfection efficiency” value in assay [2] came out at 1.9%.

Consider `CCCCCCCCCCCCCCCNc1nc(NCCCCCCCC)nc(NCCN(C)C)n1` [Compound N8N15D1], for which, in assay [1], the “Absolute DNA transfection efficiency” value came to 1.5%. In assay [2], the “Absolute mRNA transfection efficiency” value is recorded as 0.7%.

Consider `CCCCCCCCCCCCCCCNc1nc(NCCCCCCCC)nc(NCCN2CCOCC2)n1` [Compound N8N15D2], for which the “Absolute DNA transfection efficiency” value in assay [1] was found to be 0.0%. In addition, the “Absolute mRNA transfection efficiency” value in assay [2] turned out to be 0.0%.

Take `CCCCCCCCCCCCCCCNc1nc(NCCCCCCCC)nc(NCCN2CCCC2)n1` [Compound N8N15D3]: the “Absolute DNA transfection efficiency” value in assay [1] is 1.5%. The “Absolute mRNA transfection efficiency” value in assay [2] was 7.6%.

For the compound `CCCCCCCCCCCCCCCNc1nc(NCCCCCCCC)nc(NCCN2CCCCC2)n1` [Compound N8N15D4], the “Absolute DNA transfection efficiency” value in assay [1] is on record as 0.5%. Also, the “Absolute mRNA transfection efficiency” value in assay [2] is on record as 0.0%.

Regarding `CCCCCCCCCCCCCCCNc1nc(NCCCCCCCC)nc(NCCN2CCN(C)CC2)n1` [Compound N8N15D5], the “Absolute DNA transfection efficiency” value in assay [1] turned out to be 0.6%. Also, the “Absolute mRNA transfection efficiency” value in assay [2] is reported as 0.2%.

As for `CCCCCCCCCCCCCCCNc1nc(NCCCCCCCC)nc(NCCCN(C)C)n1` [Compound N8N15D6], the “Absolute DNA transfection efficiency” value in assay [1] is reported as 1.3%. Also, the “Absolute mRNA transfection efficiency” value in assay [2] came out at 0.0%.

In the case of `CCCCCCCCCCCCCCCNc1nc(NCCCCCCCC)nc(NCCN(CC)CC)n1` [Compound N8N15D7], the “Absolute DNA transfection efficiency” value in assay [1] was found to be 0.0%. The “Absolute mRNA transfection efficiency” value in assay [2] came out at 0.0%.

Regarding `CCCCCCCCCCCCCCCNc1nc(NCCCCCCCC)nc(NCCCN2CCOCC2)n1` [Compound N8N15D8], in assay [1], the “Absolute DNA transfection efficiency” value was determined as 1.1%. For the same compound, the “Absolute mRNA transfection efficiency” value in assay [2] was found to be 0.3%.

Turning to `CCCCCCCCCCCCCCCNc1nc(NCCCCCCCC)nc(NCCCN2CCN(C)CC2)n1` [Compound N8N15D9], the “Absolute DNA transfection efficiency” value in assay [1] is on record as 0.0%. Moreover, the “Absolute mRNA transfection efficiency” value in assay [2] was determined as 0.1%.

As for `CCCCCCCCCCCCCCCNc1nc(NCCCCCCCC)nc(NCC2CCN(C)CC2)n1` [Compound N8N15D10], in assay [1], the “Absolute DNA transfection efficiency” value amounted to 3.2%. In addition, in assay [2], the “Absolute mRNA transfection efficiency” value was determined as 3.3%.

Consider `CCCCCCCCCCCCCCCCNc1nc(NCCCCCCCC)nc(NCCN(C)C)n1` [Compound N8N16D1], for which the “Absolute DNA transfection efficiency” value in assay [1] amounted to 3.8%. Also, in assay [2], the “Absolute mRNA transfection efficiency” value is listed as 4.6%.

For `CCCCCCCCCCCCCCCCNc1nc(NCCCCCCCC)nc(NCCN2CCOCC2)n1` [Compound N8N16D2], the “Absolute DNA transfection efficiency” value in assay [1] was determined as 0.8%. Also, in assay [2], the “Absolute mRNA transfection efficiency” value turned out to be 0.2%.

For `CCCCCCCCCCCCCCCCNc1nc(NCCCCCCCC)nc(NCCN2CCCC2)n1` [Compound N8N16D3], the “Absolute DNA transfection efficiency” value in assay [1] was 8.5%. Besides, the “Absolute mRNA transfection efficiency” value in assay [2] came to 13.8%.
